Measured values reported in patent publication US10722505B2, “Substituted 2,4 diamino-quinoline as new anticancer agents” (GENOSCIENCE PHARMA, priority 2014, dated 2020).
pEC50: −log10 of the molar value. Structures can show the parent of a compound that is named as a salt.

Tests used:
Huh-7 cell line = assay: CellTiter-Glo growth inhibition assay, Huh-7; type: cell-based; conditions: Homo sapiens; Huh-7, hepatocellular carcinoma, 72 h
Description: (§1) All cell lines were maintained in medium containing 1% penicillin-streptomycin (Dutscher, P06-07100) and 10% Fetal Bovine Serum (Gibco, W3387L) except 20% for KG-1 cell line and PBMC, and cultured at 37° C. with 5% CO2.
(§2) HepG2, Huh7, HCT-116, MDA-MB-231 and A375 cell lines were cultured in Dulbecco's modified Eagle's medium (Dutscher, L0103).
(§3) Cell viability was measured using the CellTiter-Glo® luminescent cell viability assay as described by the manufacturer (Promega, Ref G7571) using an Infinite F200Pro luminometer (Tecan). Briefly, for adherent cells, cells were plated onto 96-well plates (white with clear bottom) in 90 μL of media per well and were allowed to grow overnight before the assay. For cells growing in suspension, cells were plated onto 96-well plates immediately before the assay.
(§4) Compounds were added at different concentrations to each well, and cell cultures were incubated for 72 h. Vehicle (H2O) was used as a control, and all compounds were tested in a constant percentage of H2O. After addition of 100 μL of CellTiter-Glo®, luminescence was measured using an Infinite F200Pro (Tecan). EC50 values were determined as the dose of compound required to reduce luminescent values to 50% of the signal obtained for untreated cell cultures. The experimental data were analyzed using a computer program, Graphpad Prism v5 (GraphPad Software, Inc. La Jolla, Calif.). […]

[1] = system: LI0752 HCC patient derived cells; assay: CellTiter-Glo growth inhibition, HCC patient-derived cells LI0752; type: cell-based, human; conditions: Homo sapiens; LI0752, 72 hours
Description: (§5) The patient derived Hepatocellular Carcinoma (HCC) cells were maintained in medium respectively described in table 15 containing 1% penicillin-streptomycin (Life Technologies, 15070-063), with a supplements for primary cell culture (PCS) containing hydrocortisone (50 nM), Epidermal Growth Factor (20 ng/ml), β-fibroblast Growth Factor (10 ng/ml), Heparin (2 μg/ml) ITS liquid media supplement (1×) and non-essential amino acid (NEAA, 0.01 mM, 1×). The primary cell were cultured in a humidified atmosphere (95% relative humidity) with 5% CO2 at 37° C.
(§6) The cell growth inhibition assay was performed as described previously in example 5 using the CellTiter-Glo® luminescent cell viability assay as described by the manufacturer (Promega, Ref G7571). The number of cells seeded per well (in 96-Well Flat Clear Bottom Black Polystyrene TC-Treated Microplates, Cat #3340, Corning®) is described in the table 16. A backseal black sticker (Cat #6005189, Perkin Elmer) was placed to the bottom of each plate before recording CellTiter-Glo® luminescence.
(§7) The experimental data are analyzed using a computer program, Graphpad Prism V 5.0 (GraphPad Software, Inc. La Jolla, Calif.) and EC50 values were determined as the dose of compound required to reduce absorbance values to 50% of the signal obtained for vehicle treated cell cultures and were a mean of at least three independent experiments.

MDA-MB-231 cell line = assay: CellTiter-Glo growth inhibition assay, MDA-MB-231; type: cell-based; conditions: Homo sapiens; MDA-MB-231, breast adenocarcinoma, 72 h
Description: as §1, §2, §3, §4

CAKI-1 cell line = assay: CellTiter-Glo growth inhibition assay, CAKI-1; type: cell-based; conditions: Homo sapiens, CAKI-1, 72 h
Description: CAKI-1 and 786-0 cell lines were maintained in RPMI 1640 medium (Dutscher, L0498) containing 1% penicillin-streptomycin (Dutscher, P06-07100) and 10% Fetal Bovine Serum (Gibco, W3387L) and cultured at 37° C. with 5% CO2.
as §3, with “Briefly,” for “Briefly, for adherent cells,”, “assay.” for “assay. For cells growing in suspension, cells were plated onto 96-well plates immediately before the assay.”
Compounds 2-3 and two reference compounds (Sorafenib and Sunitinib) were added at different concentrations to each well, and cell cultures were incubated for 72 h. For compound 2-3 analysis, H2O was used as a negative control (=untreated) and all concentrations were tested in a constant percentage of H2O. For Sorafenib and Sunitinib analysis, DMSO was used as a negative control (=untreated) and all concentrations were tested in a constant percentage of DMSO. 72 h after incubation of compounds, 100 μL of CellTiter-Glo® were added to each well and luminescence was measured using an Infinite F200Pro (Tecan). EC50 values were determined as the dose of compound required to reduce luminescent values to 50% of the signal obtained for untreated cell cultures. The experimental data were analyzed using a computer program, Graphpad Prism v5 (GraphPad Software, Inc. La Jolla, Calif.). All experiments were at least done in triplicate and repeated at least three independent times.

MRC-5 cell line = assay: CellTiter-Glo growth inhibition assay, MRC-5; type: cell-based; conditions: MRC5; MRC-5, human fetal lung fibroblast, 72 h
Description: as §1
MRC-5 cell line was maintained in MEM (Dutscher, L0416).
as §3
Compounds were added at different concentrations to each well, and cell cultures were incubated for 72 h. Vehicle (H2O) was used as a control, and all compounds were tested in a constant percentage of H2O. After addition of 100 μL of CellTiter-Glo®, luminescence was measured using an Infinite F200Pro (Tecan). EC50 values were determined as the dose of compound required to reduce luminescent values to 50% of the signal obtained for untreated cell cultures. The experimental data were analyzed using a computer program, Graphpad Prism v5 (GraphPad Software, Inc. La Jolla, Calif.).
All experiments were at least done in duplicate and repeated two independent times.

KG-1 cell line = assay: CellTiter-Glo growth inhibition assay, KG-1; type: cell-based; conditions: Homo sapiens; KG-1, acute myelogenous leukemia, 72 h
Description: as §1
KG-1 and MV4-11 cell line were maintained in Iscove's modified Dulbecco's medium (Dutscher, L0190).
as §3, §4

[2] = system: LI0612 HCC patient derived cells; assay: CellTiter-Glo growth inhibition, HCC patient-derived cells LI0612; type: cell-based, human; conditions: Homo sapiens; LI0612, 72 hours
Description: as §5, §6, §7

HepG2 cell line = assay: CellTiter-Glo growth inhibition assay, HepG2; type: cell-based; conditions: Homo sapiens; HepG2, hepatocellular carcinoma, 72 h
Description: as §1, §2, §3, §4

pEC50 (Huh-7 cell line): 5.77
pEC50 [1]: 6.30
pEC50 (MDA-MB-231 cell line): 5.70
pEC50 [2]: 5.16
pEC50 (HepG2 cell line): 6.05
SMILES: CC(C)(C)NC1CCN(c2cc(NCc3ccc(Cl)cc3)nc3ccccc23)CC1 [Compound 2-3, 2-(4-chlorobenzylamino)-4-(4-tert-butylaminopiperidin-1-yl)-quinoline hydrochloride salt]
pEC50 (CAKI-1 cell line): 5.85
pEC50 (MRC-5 cell line): ~5.47
pEC50 (KG-1 cell line): 5.29
